In patent US20070026465A1, “Method for detecting GAD65 autoreactive T cells newly diagnosed type1 diabetic patients and in the prediabetic period” (priority 2005, published 2007):
“And” between values parts separate entries of the source, which are not always exact repeats. Equal values may be shown once.

How the values were obtained:
Assay type in all cases: cell-based, human
[1] = system: PBMC of newly-diagnosed T1D patients; experiment: T cell activation (CD69 staining) in stimulated PBMC, T1D patients; details: GAD65 peptide treated PBMC, day 6;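 note: GAD65 peptide 10 to 30 µg/ml in culture medium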
Procedure: (§1) PBMC were separated from 5-10 ml heparinized peripheral blood by Ficoll gradient centrifugation (Histopaque, Sigma-Aldrich, St. Luis, Mo., USA). […] This washing step was introduced in the method to remove the GAD65 peptide and therefore reduce the risk of aspecificities in the subsequent procedure of tetramer binding. […] Cells were then harvested and processed for tetramer staining and flow cytometric analysis.
(§2) On day 4 or day 6 from the beginning of culture, 1×10^6 cells were allocated for staining. They were washed by centrifugation at 1500 rpm for 5 min at room temperature in wash buffer [0.1% sodium azide, 2% FBS in PBS] then resuspended in the residual volume (approximately 50 μl). 1 μl of phycoerythrin (PE) labelled GAD65 tetramer was added and incubated in ice for 30^+ min in the dark. […] Cells were then washed twice in phosphate buffer and their staining achieved using a Beckton Dickinson FACSCalibur flow cytometer and analysed with the CellQuest software program. T cell activation was evaluated by staining cells with […] in different multiple staining experiments. […]

[2] = system: PBMC of healthy control individuals; experiment: GAD65 HLA class I tetramer staining and flow cytometry of stimulated PBMC, healthy controls; parameters: % CD3+/CD8+/GAD65 reactive T cells, average / % CD3+/CD8+/GAD65 reactive T cells: concentration or dose not given beside the values
[3] = system: PBMC of newly diagnosed T1D patients; experiment: GAD65 HLA class I tetramer staining and flow cytometry of stimulated PBMC, T1D patients; parameters: % CD3+/CD8+/GAD65 reactive T cells, average / % CD3+/CD8+/GAD65 reactive T cells: concentration or dose not given beside the values
[4] = system: CD8+/GAD65 reactive lymphocytes of a T1D patient; experiment: Early-late apoptosis (Annexin V / propidium iodide) in peptide stimulated PBMC
Procedure: At day 4 and day 6 from the beginning of the culture, 1×10^6 cells stimulated with the GAD65 peptide according to the above mentioned protocols were washed in the same washing phosphate buffer as described above and resuspended in the residual volume of approximately 50 μl. 1 μl PE-labelled GAD65 tetramer was used per staining procedure. Cells were then incubated with biotinylated anti-human CD8 MoAb (1:10 dilution, Becton Dickinson) in ice, for at least 30 min, in the dark. They were then washed with washing buffer by centrifugation at 1500 rpm for 5 min at room temperature. 5 μl of streptavidin-(Cy5) conjugate was then added for 30 min at room temperature, in the dark. Cells were then washed in ice cold PBS (2% FBS) by centrifugation at 1500 rpm for 5 min at room temperature. Cell pellet was then suspended in 500 μl of phosphate buffer. 10 μl of cold media binding reagent (Calbiochem, San Diego, Calif., USA) and 1.25 μl of Annexin V-FITC conjugate (Calbiochem) were added according to manufacturer's instructions. […] Staining was then immediately achieved and analysed by flow cytometry. […] Cells were evaluated as necrotic when stained with propidium iodide but negative for Annexin V, cells were evaluated as late apoptotic when propidium iodide positive and binding Annexin V, early apoptotic when propidium iodide negative and Annexin V positive and viable when negative for both stainings.

[5] = system: PBMC of healthy normal controls; experiment: T cell activation (CD69 staining) in stimulated PBMC, healthy controls; details: GAD65 peptide treated PBMC, day 6;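 note: GAD65 peptide 10 to 30 µg/ml in culture medium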
Procedure: as §1, §2

Sequence: VMNILLQYV [GAD65 peptide]
- % CD69/CD3/CD8 positive T cells, average ([1]; average of T1D patients): 18.9%
- % CD69/CD3/CD8 positive T cells ([1]; individual T1D patients): 13.5% and 10.94% and 24% and 39% and 28% (2×) and 42% and 18% and 4.63% and 1.5% and 3.2% and 20% and 9.87% and 22%
- increase of the population of CD3+/CD8+/GAD65 reactive T cells (specificity of the response) [2]: no significant increase
- % CD3+/CD8+/GAD65 reactive T cells, average ([2]; GAD65-treated PBMC, average of 22 normal controls, day 6): 0.9%
- % CD3+/CD8+/GAD65 reactive T cells ([2]; GAD65-treated PBMC, individual normal controls, day 6 of culture): 0.37% and 0.42% and 2% and 0.09% and 0.97% and 0.6% and 8% and 1.21% and 0.25% and 0.9% and 1.03% and 0.49% and 0.23% (2×) and 0.03% and 0.21% and 0.11% and 0.13% and 0.14% and 0.17% and 0.86% and 0.57%
- percentage of CD8+/GAD65 reactive lymphocytes ([2]; healthy control donor, day 4, after GAD65 peptide stimulation (FIG. 9 B-C)): very low
- % CD3+/CD8+/GAD65 reactive T cells, average ([3]; GAD65 treated PBMC, average of 22 T1D patients, day 6): 30.0%
- % CD3+/CD8+/GAD65 reactive T cells ([3]; GAD65 treated PBMC, individual T1D patients, day 6 of culture): 73% and 17% and 12.5% and 14.08% and 1% (2×) and 19% and 98% and 85% and 68% and 22% and 70% and 82% and 21% and 1.35% and 2.64% and 0.81% and 3.19% and 58% and 2.59% and 2.28% and 6.39%
- Dot Plot pattern of CD8 expression of CD8+ GAD65 reactive T cells ([3]; T1D patients after GAD65 peptide stimulation, not seen in normal controls): peculiar pattern of low CD8 expression
- percentage of CD3+/CD8+/GAD65 reactive T cells compared to IL-2 stimulation ([3]; one T1D patient non-responding at day 6, 2 days peptide then 2 days IL-2, analysis at day 4 (FIG. 8)): significant increase
- apoptosis (Annexin V) of CD8+/GAD65 reactive lymphocytes ([4]; T1D patient, day 4 of culture with the GAD65 peptide (FIG. 9 E-F)): shows signs of apoptosis
- population of Annexin V positive cells ([4]; same samples, day 6 of GAD65 peptide treatment (FIG. 10)): no longer detectable
- % CD69+/CD3+/CD8+ T cells, average ([5]; average of normal controls): 12.9%
- % CD69+/CD3+/CD8+ T cells ([5]; individual normal controls): 2.1% and 0.75% and 13.51% and 17% and 26% and 13.4% and 18% (2×) and 19% and 1.7%
